Measured values published in PubChem BioAssay (NCI).
Values joined by “and” are separate entries in the source; they are usually repeats but may differ in a detail not shown here. Identical values can stand only once.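 Protocol summary: plate cells (96-well), add compound at 5 concentrations, incubate 48 h, interpolate endpoints linearly. Here, GI50 denotes the concentration required for 50% inhibition of growth. TGI: concentration producing complete growth inhibition.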

Assays:
Test in all cases: DTP human tumour cell line panel, 48 h
OVCAR-4 ovarian = system: OVCAR-4 ovarian
SF-539 CNS = system: SF-539 CNS
HCT-15 colon = system: HCT-15 colon
SR leukemia = system: SR leukemia
HOP-92 NSCLC = system: HOP-92 NSCLC
SK-MEL-28 melanoma = system: SK-MEL-28 melanoma
LOX IMVI melanoma = system: LOX IMVI melanoma
MDA-MB-435 = system: MDA-MB-435
T-47D breast = system: T-47D breast
UACC-257 melanoma = system: UACC-257 melanoma

| Structure (SMILES) | GI50 (OVCAR-4 ovarian) | TGI (OVCAR-4 ovarian) | GI50 (SF-539 CNS) [µM] | TGI (SF-539 CNS) | GI50 (HCT-15 colon) | TGI (HCT-15 colon) | GI50 (SR leukemia) | TGI (SR leukemia) | GI50 (HOP-92 NSCLC) [µM] | TGI (HOP-92 NSCLC) | GI50 (SK-MEL-28 melanoma) [µM] | TGI (SK-MEL-28 melanoma) [µM] | GI50 (LOX IMVI melanoma) | TGI (LOX IMVI melanoma) | GI50 (MDA-MB-435) [µM] | TGI (MDA-MB-435) [µM] | GI50 (T-47D breast) | TGI (T-47D breast) [µM] | GI50 (UACC-257 melanoma) | TGI (UACC-257 melanoma) [µM] |
| --- | --- | --- | --- | --- | --- | --- | --- | --- | --- | --- | --- | --- | --- | --- | --- | --- | --- | --- | --- | --- |
| COc1ccc2c(c1)CC[C@@H]1[C@@H]2CC[C@]2(C)c3[nH]ncc3C[C@@H]12 | 15.4 µM | > 50 µM | 14.8 | 42 µM | 16.8 µM | > 50 µM | 2.14 µM | 15.3 µM | 14.4 | > 50 µM | 32.1 | > 50 | 10.8 µM | 33.3 µM | 14.7 | 44.5 | 10.9 µM | 33 | 11.3 µM | 29.4 |
| CC(N)(Cc1c[nH]c2ccccc12)C(=O)O (stereo not drawn) | > 2500 µM | > 2500 µM | > 2500 | > 2500 µM | > 2500 µM | > 2500 µM | > 2500 µM | > 2500 µM | 1800 | > 2500 µM | > 2500 | > 2500 | > 2500 µM | > 2500 µM | > 2500 | > 2500 | > 2500 µM | > 2500 | > 2500 µM | > 2500 |
| NC(=O)c1ccc2nc(-c3ccc(C4(N)CCC4)cc3)c(-c3ccccc3)n2n1 | 16 µM | 44.6 µM | 2.13 | 13.7 µM | 11.5 µM | 33.1 µM | 7.65 µM | 31.2 µM | 0.815 | 14.1 µM | 10.9 | 23.7 | 10.5 µM | 24 µM | 11.8 | 24.4 | 0.0186 µM | 15.8 | 13.2 µM | 29.7 |
| COc1ccc2c(c1)C(=O)c1c-2c(OCCN(C)C)nc2cc(OC)ccc12 | 1.06 µM | 2.9 µM | 1.61 | 3.32 µM | 0.475 µM | 2.39 µM | 0.264 µM | 1.42 µM | 1.65 | 7.02 µM | 2.08 | 4.19 | 0.751 µM | 2.07 µM | 1.62 | 3.72 | 6.1 µM | 21.8 | 3.19 µM | 9.96 |
| CC(C)(C)OC(=O)N1CC(Cn2cc(C(F)(F)F)c3c(Cl)ncnc32)C1 | 10.2 µM | 23.2 µM | 11.3 | 24.6 µM | 2 µM | 4.4 µM | 0.726 µM | > 100 µM | 4.5 | 21.4 µM | 1.91 | 3.53 | 1.75 µM | 3.27 µM | 1.72 | 3.14 | 5.51 µM | 27.1 | 2.2 µM | 5.43 |
| CNS(=O)(=O)c1ccccc1C(=N)c1ccccc1 | – | > 100 µM | – | > 100 µM | – | > 100 µM | – | > 100 µM | – | > 100 µM | – | > 100 | – | > 100 µM | – | > 100 | – | > 100 | – | – |
| O=S(=O)(CC#CCCCOCC#Cc1ccccc1C#CCS(=O)(=O)c1ccccc1)c1ccccc1 | – | – | 22.9 | 45.3 µM | 22.6 µM | 45.6 µM | 4.16 µM | 21.8 µM | – | – | – | – | 8.1 µM | 24.8 µM | 26 | 62.4 | > 100 µM | > 100 | 14.9 µM | 38.9 |
| COc1ccc(C2=CC(c3ccc(Oc4ccnc5cc(Cl)ccc45)c(OC)c3)c3c(nc(OC)[nH]c3=O)N2)cc1 (stereo not drawn) | 6.69 µM | > 100 µM | 20.7 | > 100 µM | 3.85 µM | > 100 µM | 2.91 µM | 64.6 µM | – | – | 45.3 | > 100 | 4.04 µM | 67.2 µM | 5.06 | > 100 | 6.83 µM | > 100 | 26.4 µM | > 100 |
| COc1cc(-c2cc(-c3nc4cc(Cl)c(Cl)cc4[nH]3)[nH]n2)cc(OC)c1OC | 2.21 µM | 6.77 µM | 3.28 | 13.4 µM | 2.89 µM | 11.8 µM | 3.89 µM | 20.6 µM | – | – | 3.07 | 12.3 | – | – | 3.78 | 14.6 | 1.87 µM | 5 | 3.77 µM | 14.3 |
| O=[N+]([O-])c1cccc(/C=C/c2ccccn2)c1 | 18.8 µM | > 100 µM | 26.6 | > 100 µM | 4.84 µM | > 100 µM | 51.6 µM | > 100 µM | 24.3 | > 100 µM | > 100 | > 100 | 10.6 µM | > 100 µM | 67 | > 100 | 1.82 µM | > 100 | > 100 µM | > 100 |
| C/C(=C1/N=C(c2ccccc2)OC1=O)c1ccc(C)cc1 | – | > 100 µM | – | > 100 µM | – | > 100 µM | – | > 100 µM | – | > 100 µM | – | > 100 | – | > 100 µM | – | > 100 | – | > 100 | – | > 100 |
| COc1cc2cn3c4ccc(O)cc4nc(N)c3c2cc1OC | 0.651 µM | 12.4 µM | 0.2 | 2.39 µM | 0.721 µM | 12.1 µM | 0.0119 µM | 1.39 µM | 0.669 | 8.06 µM | 0.0518 | 15.8 | 0.0621 µM | 1.79 µM | 0.0195 | 12.8 | 0.435 µM | 16.4 | 1.39 µM | 6.94 |
| COc1cc(/C=C/C(=O)NC[C@]2(O)CCC3C4CCc5cc(O)ccc5C4CCC32C)ccc1O (stereo partly drawn) | 7.49 µM | > 100 µM | 16.1 | > 100 µM | 7.41 µM | > 100 µM | 1.53 µM | 59.7 µM | 21.8 | > 100 µM | 33.9 | > 100 | 8.36 µM | > 100 µM | 4.46 | 37.5 | 6.53 µM | > 100 | 39.5 µM | > 100 |
| Cc1cc(S(N)(=O)=O)c(S/C(=N\Nc2ccc([N+](=O)[O-])cc2)c2ccc(O)cc2)cc1Cl | 3.43 µM | 7.94 µM | 3.39 | 8.74 µM | 3.54 µM | 23.2 µM | 51.6 µM | > 100 µM | – | – | 2.62 | 5.73 | – | – | 1.8 | 3.44 | 2.54 µM | 6.64 | 5.22 µM | 19.3 |
| S=c1nc[nH]c2nc[nH]c12 | 70.8 µM and 61.2 µM | > 100 µM and 618 µM and > 750 µM | 3.02 | > 100 µM and 587 µM and 255 µM | 3.4 µM and 18.2 µM | > 100 µM and 629 µM and > 750 µM | 0.43 µM | 72.7 µM and 239 µM | 0.578 | 82.2 µM and 285 µM | 79.2 | > 750 | 0.321 µM and 3.01 µM | 41.4 µM and 111 µM and 192 µM | 0.61 | > 750 | 0.812 µM and 5.81 µM | > 627 | > 100 µM and 43.7 µM | > 750 |
| CN(C)c1ccc(/C=C/c2ccnc3ccc4ccccc4c23)cc1 | – | – | – | > 100 µM | – | > 100 µM | – | > 100 µM | – | > 100 µM | – | > 100 | – | > 100 µM | – | > 100 | – | > 100 | – | > 100 |
| COC1=C(C)C(=O)C2=C(C1=O)C(CO)N1C(C#N)C3CC4C(C1C2N1CCOC41)N3C (stereo not drawn) | 0.128 µM and 0.0409 µM and 0.0516 µM | 0.728 µM and 0.218 µM and 0.332 µM | – | – | 0.00146 µM and 0.0129 µM | – | 0.00159 µM and 0.00538 µM | – | 0.0014 | – | – | – | 0.00204 µM | – | – | – | 0.00033 µM and < 0.0144 µM | – | 0.00238 µM and 0.0198 µM | – |
| Cc1ccc(Nc2[nH]c(C(=O)c3ccc(Cl)cc3)c(N)c2C(=S)Nc2ccccc2)nc1 | 63.6 µM | > 100 µM | 19.9 | 44.8 µM | 31 µM | > 100 µM | – | – | 29.5 | > 100 µM | 55.2 | > 100 | 23 µM | 53.1 µM | 23 | 96.3 | 29.8 µM | > 100 | 33.3 µM | > 100 |
| C=CCC(N[C@@H](CO)c1ccccc1)c1ccccn1 (stereo partly drawn) | 25.6 µM | > 100 µM | > 100 | > 100 µM | > 100 µM | > 100 µM | 18.3 µM | > 100 µM | – | – | > 100 | > 100 | > 100 µM | > 100 µM | > 100 | > 100 | > 100 µM | > 100 | 74.8 µM | > 100 |
| COc1cc([N+](=O)[O-])c(S(=O)(=O)O)cc1N | – | > 100 µM | – | > 100 µM | – | > 100 µM | – | > 100 µM | – | – | – | > 100 | – | > 100 µM | – | > 100 | – | > 100 | – | > 100 |
| COc1ccc(N2CCN(CN3CCN(c4ccc(OC)cc4)C3)C2)cc1 | > 100 µM | > 100 µM | > 100 | > 100 µM | 37 µM | > 100 µM | – | – | 57.9 | > 100 µM | > 100 | > 100 | 41.3 µM | > 100 µM | > 100 | > 100 | > 100 µM | > 100 | > 100 µM | > 100 |
